Some targets named below: Carbonic anhydrase 9 (Homo sapiens, UniProt Q16790); Carbonic anhydrase 2 (Homo sapiens, UniProt P00918); Carbonic anhydrase 1 (Homo sapiens, UniProt P00915).

Chain of Carbonic anhydrase 1 (P00915 whole entry): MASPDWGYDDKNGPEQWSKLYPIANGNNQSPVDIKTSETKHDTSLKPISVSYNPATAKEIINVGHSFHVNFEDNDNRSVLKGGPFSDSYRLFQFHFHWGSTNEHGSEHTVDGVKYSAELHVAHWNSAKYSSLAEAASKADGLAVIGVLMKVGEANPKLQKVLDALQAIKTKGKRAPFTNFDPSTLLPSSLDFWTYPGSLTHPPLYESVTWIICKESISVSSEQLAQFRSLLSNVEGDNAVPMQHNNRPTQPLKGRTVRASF

Usually Ki stands for the dissociation constant of the complex between target and ligand, obtained from inhibition or displacement. Read a high Ki as a looser hold on the target. Take `CCOc1nc(NCc2ccc(S(N)(=O)=O)cc2)nc(OCC)n1`: the inhibition constant Ki at Carbonic anhydrase 9 was determined as 0.34 nM; on Carbonic anhydrase 2, 84 nM; at Carbonic anhydrase 1, 110 nM.

Regarding `CCOc1nc(NCCc2ccc(S(N)(=O)=O)cc2)nc(OCC)n1`, the figures for the Ki at Carbonic anhydrase 2 and at Carbonic anhydrase 1 were 23 nM and 82 nM, respectively.

As to `CNc1nc(NC)nc(NCc2ccc(S(N)(=O)=O)cc2)n1`, the figures for the Ki at Carbonic anhydrase 9, on Carbonic anhydrase 2 and at Carbonic anhydrase 1 were 1.3 nM, 15 nM and 90 nM, respectively.

For `COc1nc(Nc2ccc(S(N)(=O)=O)cc2)nc(OC)n1`, the values for the Ki at Carbonic anhydrase 9, at Carbonic anhydrase 2 and at Carbonic anhydrase 1 were 150 nM, 36 nM and 85 nM, respectively.

For `CNc1nc(NC)nc(NCCc2ccc(S(N)(=O)=O)cc2)n1`, the Ki on Carbonic anhydrase 9 came to 1.1 nM; at Carbonic anhydrase 2, 27 nM; on Carbonic anhydrase 1, 88 nM.

For the compound `NS(=O)(=O)c1ccc(CCNc2nc(Cl)nc(Cl)n2)cc1`, the Ki at Carbonic anhydrase 9 was determined as 138 nM; on Carbonic anhydrase 2, 21 nM; on Carbonic anhydrase 1, 75 nM.

Consider `NS(=O)(=O)c1ccc(CCNc2nc(=O)[nH]c(=O)[nH]2)cc1`, for which the figures for the Ki at Carbonic anhydrase 9, at Carbonic anhydrase 2 and at Carbonic anhydrase 1 were 549 nM, 98 nM and 96 nM, respectively.

Regarding `COc1nc(NCc2ccc(S(N)(=O)=O)cc2)nc(OC)n1`, the results for the inhibitory constant (Ki) on Carbonic anhydrase 9, at Carbonic anhydrase 2 and on Carbonic anhydrase 1 were 155 nM, 112 nM and 116 nM, respectively.

`NS(=O)(=O)c1ccc(Nc2nc(Cl)nc(Cl)n2)cc1`: the affinity at Carbonic anhydrase 9 corresponds to a Ki of 0.15 nM.

On to `NS(=O)(=O)c1ccc(Nc2nc(=O)[nH]c(=O)[nH]2)cc1`, for which the Ki at Carbonic anhydrase 9 is 142 nM; at Carbonic anhydrase 2, 278 nM; at Carbonic anhydrase 1 it was 103 nM.

On to `CCOc1nc(Nc2ccc(S(N)(=O)=O)cc2)nc(OCC)n1`, for which the inhibitory constant (Ki) on Carbonic anhydrase 9 came to 0.12 nM; on Carbonic anhydrase 2 it was 20 nM; at Carbonic anhydrase 1 it was 78 nM.

On to `CNc1nc(NC)nc(Nc2ccc(S(N)(=O)=O)cc2)n1`, for which the affinity at Carbonic anhydrase 1 corresponds to a Ki of 83 nM. In other words, the double-digit nanomolar range.

As for `COc1nc(NCCc2ccc(S(N)(=O)=O)cc2)nc(OC)n1`, the inhibition constant Ki on Carbonic anhydrase 9 was found to be 162 nM; at Carbonic anhydrase 2, 21 nM.

Take `NS(=O)(=O)c1ccc(CNc2nc(=O)[nH]c(=O)[nH]2)cc1`: the inhibition constant Ki at Carbonic anhydrase 9 worked out at 360 nM; at Carbonic anhydrase 2, 130 nM; at Carbonic anhydrase 1, 94 nM.

(Values after ChEMBL document CHEMBL1138005, “Carbonic anhydrase inhibitors: synthesis and inhibition of cytosolic/tumor-associated carbonic anhydrase isozymes I, II, and IX with sulfonamides incorporating 1,2,4-triazine moieties” (Bioorg Med Chem Lett, 2004).)
